Reference: patent US4293483A, “Derivatives of A-30912A nucleus” (priority 1980, dated 1981)
Numbered stars: 1 amine (or outer) side, 2 acyl side, 3 side chain; on linkers, the order of the positions; unused ones are H or OH. Bridge positions count the residues as written; N and C are the ends. Square brackets hold non-standard residues; d marks the D form. Peptide text beside a SMILES is read from it. * marks the point of attachment. ξ: configuration not given here. Orn(4R-OH,5R-OH) = O=C([C@H](C[C@@H](O)[C@@H](O)N[*:3])N[*:1])[*:2]; hTyr(3S-OH,4S-OH) = N[C@H](C(=O)O)[C@H](O)[C@@H](O)c1ccc(O)cc1; Pro(3S-OH,4S-Me) = C[C@H]1CN[C@H](C(=O)O)[C@H]1O; Hyp = O=C(O)[C@@H]1C[C@@H](O)CN1; X4 = Cc1cc(C(=O)[*:2])ccc1N[*:1]; X7 = Cc1ccc(C(=O)[*:2])cc1N[*:1]; X8 = O=C(c1ccc(N[*:1])cc1O)[*:2]; Lauroyl = CCCCCCCCCCCC(=O)*; 3Abz = Nc1cccc(C(=O)O)c1; ξF = NC(Cc1ccccc1)C(=O)O

Tests used:
[1] = test system: Saccharomyces pastorianus X-52; assay: Agar plate disc diffusion test, zone of inhibition; format: cell-based; settings: Saccharomyces pastorianus, X52, 48 h, Saccharomyces pastorianus X-52; 1 mg/ml suspension in methanol, 7 mm disc; 24-48 hours at 25-37° C.; read-out: Size of Zone of Inhibition
Experimental: (§1) ^(a) Compounds were tested as suspension in methanol.
(§2) were tested at a concentration of 1 mg/ml by a dipping 7mm disc into the
(§3) suspension and placing it on the agar surface. Incubation: 24-48 hours at

Neurospora Crassa 846 = assay: Agar plate disc diffusion test, zone of inhibition; format: cell-based; settings: Neurospora crassa, CRASSA846, Neurospora Crassa 846; 1 mg/ml, 7 mm disc; * measurable zone of inhibition with regrowth of organism around disc; read-out: Size of Zone of Inhibition (*)
Experimental: as §1, §2, §3

[2] = test system: Trichophyton mentagrophytes; assay: Agar plate disc diffusion test, zone of inhibition; format: cell-based; settings: 1 mg/ml, 7 mm disc, * measurable zone of inhibition with regrowth of organism around disc, read-out: Size of Zone of Inhibition (*)
Experimental: as §1, §2, §3

Candida albicans A-26 [3] = assay: Agar plate disc diffusion test, zone of inhibition; format: cell-based; settings: 1 mg/ml suspension in methanol, 7 mm disc, 24-48 hours at 25-37° C., no regrowth mark
Experimental: as §1, §2, §3

Candida albicans A-26 [4] = assay: Agar plate disc diffusion test, MIC per disc; format: cell-based; settings: 0.01M sodium borate, pH 7.5, 24 hours at 30° C.
Experimental: (§4) In Table 5, activity is measured by the minimal inhibitory concentration (MIC) of the substance (μg/disc) required to inhibit growth of the test organism.
(§5) *Compounds were suspended in 0.01M sodium borate solution, pH 7.5.
(§6) compounds were tested at 20 μg/disc at top level and at twofold
(§7) dilutions until end points were reached.

[5] = test system: Trychophyton mentagrophytes #6; assay: Agar plate disc diffusion test, MIC per disc; format: cell-based; settings: 0.01M sodium borate, pH 7.5, 24 hours at 30° C.
Experimental: as §4, §5, §6, §7

Candida albicans A-26 [6] = assay: Therapeutic activity against Candida albicans A-26 infection in mice; format: in vivo; settings: A26, sc, subcutaneous at 0, 4 and 24 hours post infection; for ED50: dose to cure 50% of test animals, by increase in survival time, read-out: ED50; for minimal effective dose: lowest dose with significant anti-fungal effect, read-out: Lowest Active Dose
Experimental: The results of in vivo tests to evaluate the effectiveness of the compound of Examples 61-81, 86 and 88 against an infection caused by Candida albicans A-26 in mice are given in Table 7, where activity is measured by the ED50 value (the dose in mg/kg. required to cure 50% of the test animals). Where an ED50 value was not obtained, activity is indicated by the lowest dose at which a significant anti-fungal effect is observed. In this test, groups of male albino mice (specific pathogen free), weighing 18 to 20 grams, are infected intravenously with Candida albicans A-26. The animals are X-irradiated 24 hours prior to infection at about 50 roentgens per minute for 8 minutes (400 total dose) to reduce immune responses to the infecting organism. At 0, 4, and 24 hours post infection each group of mice is given graded doses subcutaneously of the test compound as a suspension in 33% polyethylene glycol-water. The day of death for each animal is recorded.
*Dosage Schedule: 40, 20, 15, and 10 mg/kg. Dosages given 0, 4, and 24
hours post injection as suspension of test compound in 30% PEGH2 O.
Number of mice receiving test compounds at each dosage level: 6 mice per
group. Number of mice in control (untreated) group: 10 mice per group.
**As measured by increase in survival time of treated animals versus
control, calculated by method of Reed V. Mueuch, American J. Hygiene, 493

[7] = mouse, in vivo, 416 mg/kg, 240 min

Row | MIC (Candida albicans A-26 [4]) | MIC [5] | Blood Levels [7] | SMILES | zone of inhibition at 1000 µg/mL [1] | zone of inhibition at 1000 µg/mL (Neurospora Crassa 846) | zone of inhibition at 1000 µg/mL [2] | Size of Zone of Inhibition (Candida albicans A-26 [3]) | ED50 (Candida albicans A-26 [6]) | minimal effective dose (Candida albicans A-26 [6])
1 | 0.625 μg/disc | < 0.039 μg/disc | 0 µg/mL | CCCCCCCCCCCC(=O)NC(Cc1ccccc1)C(=O)N[C@H]1C[C@@H](O)[C@@H](O)NC(=O)[C@@H]2[C@@H](O)[C@@H](C)CN2C(=O)[C@H]([C@@H](C)O)NC(=O)[C@H]([C@H](O)[C@@H](O)c2ccc(O)cc2)NC(=O)[C@@H]2C[C@@H](O)CN2C(=O)[C@H]([C@@H](C)O)NC1=O (stereo partly drawn) [Example 61] (Lauroyl-[ξF][Orn(4R-OH,5R-OH)]T[Hyp][hTyr(3S-OH,4S-OH)]T[Pro(3S-OH,4S-Me)]; lactam 2-C) | 18 mm | 42 mm | 55 mm | 25 mm | > 40 mg/kg | > 40 mg/kg
2 | 5.0 μg/disc | < 0.039 μg/disc | 0 µg/mL | CCCCCCCCCCCC(=O)Nc1cccc(C(=O)N[C@H]2C[C@@H](O)[C@@H](O)NC(=O)[C@@H]3[C@@H](O)[C@@H](C)CN3C(=O)[C@H]([C@@H](C)O)NC(=O)[C@H]([C@H](O)[C@@H](O)c3ccc(O)cc3)NC(=O)[C@@H]3C[C@@H](O)CN3C(=O)[C@H]([C@@H](C)O)NC2=O)c1 [Example 65] ({Lauroyl-3Abz}-[Orn(4R-OH,5R-OH)]T[Hyp][hTyr(3S-OH,4S-OH)]T[Pro(3S-OH,4S-Me)]; lactam 1-C) | 17 mm | – | – | 20 mm | > 40 mg/kg | > 40 mg/kg
3 | 1.25 μg/disc | < 0.039 μg/disc | 0 µg/mL | CCCCCCCCCCCC(=O)Nc1ccc(C(=O)N[C@H]2C[C@@H](O)[C@@H](O)NC(=O)[C@@H]3[C@@H](O)[C@@H](C)CN3C(=O)[C@H]([C@@H](C)O)NC(=O)[C@H]([C@H](O)[C@@H](O)c3ccc(O)cc3)NC(=O)[C@@H]3C[C@@H](O)CN3C(=O)[C@H]([C@@H](C)O)NC2=O)c(O)c1 [Example 66] (Lauroyl-[X8][Orn(4R-OH,5R-OH)]T[Hyp][hTyr(3S-OH,4S-OH)]T[Pro(3S-OH,4S-Me)]; lactam 2-C) | 18 mm | – | – | 23 mm | > 40 mg/kg | 40 mg/kg
4 | > 20 μg/disc | < 0.039 μg/disc | 0 µg/mL | CCCCCCCCCCCC(=O)Nc1cc(C(=O)N[C@H]2C[C@@H](O)[C@@H](O)NC(=O)[C@@H]3[C@@H](O)[C@@H](C)CN3C(=O)[C@H]([C@@H](C)O)NC(=O)[C@H]([C@H](O)[C@@H](O)c3ccc(O)cc3)NC(=O)[C@@H]3C[C@@H](O)CN3C(=O)[C@H]([C@@H](C)O)NC2=O)ccc1C [Example 69] (Lauroyl-[X7][Orn(4R-OH,5R-OH)]T[Hyp][hTyr(3S-OH,4S-OH)]T[Pro(3S-OH,4S-Me)]; lactam 2-C) | 17 mm | 30 mm | – | 16 mm | > 40 mg/kg | > 40 mg/kg
5 | 20 μg/disc | < 0.039 μg/disc | 0 µg/mL | CCCCCCCCCCCC(=O)Nc1ccc(C(=O)N[C@H]2C[C@@H](O)[C@@H](O)NC(=O)[C@@H]3[C@@H](O)[C@@H](C)CN3C(=O)[C@H]([C@@H](C)O)NC(=O)[C@H]([C@H](O)[C@@H](O)c3ccc(O)cc3)NC(=O)[C@@H]3C[C@@H](O)CN3C(=O)[C@H]([C@@H](C)O)NC2=O)cc1C [Example 70] (Lauroyl-[X4][Orn(4R-OH,5R-OH)]T[Hyp][hTyr(3S-OH,4S-OH)]T[Pro(3S-OH,4S-Me)]; lactam 2-C) | 19 mm | 25 mm | 45 mm | 26 mm | > 40 mg/kg | > 40 mg/kg
